“And” between values parts separate entries of the source, which are not always exact repeats. Equal values may be shown once.
Test system: Swiss mice, Sarcoma 180 sc, mean tumor weight T/C
Test: NCI In Vivo Anticancer Drug Screen. Data for tumor model Sarcoma 180 (subcutaneous) in Swiss mice
Conditions: endpoint: mean tumor weight, higher = larger tumour
Procedure: The antitumor activity of compounds was measured in mice bearing transplantable tumors. Survival or tumor size were measured and the results are expressed as the measurement made in the treated group (T) divided by the measurement made in the vehicle treated control group (C). The tumor model used in this assay is Sarcoma 180 (subcutaneous) in Swiss mice

[1] = dose: 8.0 mg/kg/injection, schedule: Q01DX007 (ip), vehicle: saline
[2] = dose: 2.0 mg/kg/injection, schedule: Q01DX007 (ip), vehicle: saline

## Nc1ccn(C2OC(CO)C(O)C2O)c(=O)n1 (stereo not drawn)
[1]
  T/C: 47 % of control and 51 % of control
dose: 12.0 mg/kg/injection, schedule: Q01DX007 (ip), vehicle: saline
  T/C: 61 % of control and 70 % of control
dose: 27.0 mg/kg/injection, schedule: Q01DX007 (ip), vehicle: saline
  T/C: 51 % of control and 73 % of control
dose: 40.0 mg/kg/injection, schedule: Q01DX007 (ip), vehicle: saline
  T/C: 37 % of control and 46 % of control
dose: 60.0 mg/kg/injection, schedule: Q01DX007 (ip), vehicle: saline
  T/C: 13 % of control and 16 % of control
dose: 90.0 mg/kg/injection, schedule: Q01DX007 (ip), vehicle: saline
  T/C: 10 % of control

## O=C(Nc1ccc(NC2=NCCN2)cc1)c1ccc(C(=O)Nc2ccc(NC3=NCCN3)cc2)cc1
[2]
  T/C: 109 % of control
dose: 4.0 mg/kg/injection, schedule: Q01DX007 (ip), vehicle: saline
  T/C: 95 % of control
[1]
  T/C: 97 % of control
dose: 16.0 mg/kg/injection, schedule: Q01DX007 (ip), vehicle: saline
  T/C: 43 % of control

## Clc1ccc2c(c1)C(Br)c1cc(Cl)cc(Cl)c1-2 (stereo not drawn)
dose: 222.0 mg/kg/injection, schedule: Q01DX007 (ip), vehicle: other
  T/C: 66 % of control
dose: 222.0 mg/kg/injection, schedule: Q01DX007 (ip), vehicle: saline
  T/C: 67 % of control
dose: 333.0 mg/kg/injection, schedule: Q01DX007 (ip), vehicle: other
  T/C: 27 % of control
dose: 333.0 mg/kg/injection, schedule: Q01DX007 (ip), vehicle: saline
  T/C: 32 % of control
dose: 500.0 mg/kg/injection, schedule: Q01DX007 (ip), vehicle: other
  T/C: 30 % of control
dose: 750.0 mg/kg/injection, schedule: Q01DX007 (ip), vehicle: other
  T/C: 21 % of control

## CC(=O)NC(CCC(=O)C=[N+]=N)C(=O)O (stereo not drawn)
dose: 0.03 mg/kg/injection, schedule: Q01DX007 (ip), vehicle: water
  T/C: 62 % of control and 80 % of control
dose: 0.05 mg/kg/injection, schedule: Q01DX007 (ip), vehicle: water
  T/C: 58 % of control and 63 % of control
dose: 0.1 mg/kg/injection, schedule: Q01DX007 (ip), vehicle: water
  T/C: 13 % of control and 26 % of control
dose: 0.2 mg/kg/injection, schedule: Q01DX007 (ip), vehicle: water
  T/C: 1 % of control

## CC=C(/C(=C/C)c1ccc(O)cc1)c1ccc(O)cc1
dose: 15.0 mg/kg/injection, schedule: Q01DX007 (ip), vehicle: carboxymethylcellulose (CMC)
  T/C: 52 % of control
dose: 20.0 mg/kg/injection, schedule: Q01DX007 (ip), vehicle: carboxymethylcellulose (CMC)
  T/C: 42 % of control
dose: 27.5 mg/kg/injection, schedule: Q#A X014 (ip), vehicle: carboxymethylcellulose (CMC)
  T/C: 40 % of control and 54 % of control
dose: 30.0 mg/kg/injection, schedule: Q01DX007 (ip), vehicle: carboxymethylcellulose (CMC)
  T/C: 48 % of control
dose: 44.0 mg/kg/injection, schedule: Q01DX007 (ip), vehicle: carboxymethylcellulose (CMC)
  T/C: 31 % of control and 40 % of control
dose: 66.0 mg/kg/injection, schedule: Q01DX007 (ip), vehicle: carboxymethylcellulose (CMC)
  T/C: 35 % of control
dose: 80.0 mg/kg/injection, schedule: Q01DX007 (sc), vehicle: carboxymethylcellulose (CMC)
  T/C: 58 % of control
dose: 80.0 mg/kg/injection, schedule: Q01DX007 (sc), vehicle: steriod suspending solution
  T/C: 14 % of control
dose: 94.0 mg/kg/injection, schedule: Q#A X014 (ip), vehicle: carboxymethylcellulose (CMC)
  T/C: 50 % of control and 69 % of control
dose: 100.0 mg/kg/injection, schedule: Q01DX007 (ip), vehicle: carboxymethylcellulose (CMC)
  T/C: 52 % of control
dose: 124.0 mg/kg/injection, schedule: Q01DX007 (ip), vehicle: carboxymethylcellulose (CMC)
  T/C: 104 % of control
dose: 150.0 mg/kg/injection, schedule: Q01DX007 (ip), vehicle: carboxymethylcellulose (CMC)
  T/C: 39 % of control
dose: 160.0 mg/kg/injection, schedule: Q01DX007 (sc), vehicle: carboxymethylcellulose (CMC)
  T/C: 52 % of control
dose: 160.0 mg/kg/injection, schedule: Q01DX007 (sc), vehicle: steriod suspending solution
  T/C: 23 % of control
dose: 188.0 mg/kg/injection, schedule: Q01DX007 (ip), vehicle: carboxymethylcellulose (CMC)
  T/C: 84 % of control
dose: 225.0 mg/kg/injection, schedule: Q01DX007 (ip), vehicle: carboxymethylcellulose (CMC)
  T/C: 28 % of control and 31 % of control
dose: 277.0 mg/kg/injection, schedule: Q01DX007 (ip), vehicle: carboxymethylcellulose (CMC)
  T/C: 71 % of control
dose: 281.0 mg/kg/injection, schedule: Q01DX007 (ip), vehicle: carboxymethylcellulose (CMC)
  T/C: 63 % of control
dose: 320.0 mg/kg/injection, schedule: Q01DX007 (sc), vehicle: carboxymethylcellulose (CMC)
  T/C: 30 % of control
dose: 320.0 mg/kg/injection, schedule: Q01DX007 (sc), vehicle: steriod suspending solution
  T/C: 23 % of control
dose: 333.0 mg/kg/injection, schedule: Q01DX007 (ip), vehicle: carboxymethylcellulose (CMC)
  T/C: 29 % of control
dose: 422.0 mg/kg/injection, schedule: Q01DX007 (ip), vehicle: carboxymethylcellulose (CMC)
  T/C: 58 % of control and 65 % of control
dose: 500.0 mg/kg/injection, schedule: Q01DX007 (ip), vehicle: carboxymethylcellulose (CMC)
  T/C: 24 % of control and 38 % of control
dose: 630.0 mg/kg/injection, schedule: Q01DX007 (ip), vehicle: carboxymethylcellulose (CMC)
  T/C: 63 % of control
dose: 640.0 mg/kg/injection, schedule: Q01DX007 (sc), vehicle: carboxymethylcellulose (CMC)
  T/C: 47 % of control
dose: 640.0 mg/kg/injection, schedule: Q01DX007 (sc), vehicle: steriod suspending solution
  T/C: 17 % of control
dose: 750.0 mg/kg/injection, schedule: Q01DX007 (ip), vehicle: carboxymethylcellulose (CMC)
  T/C: 35 % of control
dose: 945.0 mg/kg/injection, schedule: Q01DX007 (ip), vehicle: carboxymethylcellulose (CMC)
  T/C: 44 % of control

## Cc1cc(C)c(N)c(C)c1N
dose: 187.5 mg/kg/injection, schedule: Q#A X014 (ip), vehicle: methylcellulose (MC)
  T/C: 48 % of control

## CO[C@@]12[C@H](COC(N)=O)C3=C(C(=O)C(C)=C(N)C3=O)N1C[C@@H]1N[C@@H]12
dose: 0.12 mg/kg/injection, schedule: Q#A X014 (ip), vehicle: carboxymethylcellulose (CMC)
  T/C: 113 % of control
dose: 0.25 mg/kg/injection, schedule: Q#A X014 (ip), vehicle: carboxymethylcellulose (CMC)
  T/C: 73 % of control
dose: 0.5 mg/kg/injection, schedule: Q#A X014 (ip), vehicle: carboxymethylcellulose (CMC)
  T/C: 57 % of control
dose: 1.5 mg/kg/injection, schedule: Q#A X014 (ip), vehicle: carboxymethylcellulose (CMC)
  T/C: 39 % of control
dose: 2.0 mg/kg/injection, schedule: Q#A X014 (ip), vehicle: carboxymethylcellulose (CMC)
  T/C: 17 % of control
dose: 262.0 micrograms/kg/injection, schedule: Q01DX007 (ip), vehicle: carboxymethylcellulose (CMC)
  T/C: 69 % of control
dose: 525.0 micrograms/kg/injection, schedule: Q01DX007 (ip), vehicle: carboxymethylcellulose (CMC)
  T/C: 98 % of control
dose: 1050.0 micrograms/kg/injection, schedule: Q01DX007 (ip), vehicle: carboxymethylcellulose (CMC)
  T/C: 84 % of control
dose: 2100.0 micrograms/kg/injection, schedule: Q01DX007 (ip), vehicle: carboxymethylcellulose (CMC)
  T/C: 49 % of control

## CC(=O)c1cccc(NC2C(N)C(NC(=O)N(C)C)(C(C)O)C(C)(O)C2(O)COC(=O)c2c(C)cccc2O)c1 (stereo not drawn)
dose: 0.5 mg/kg/injection, schedule: Q01DX007 (ip), vehicle: other
  T/C: 88 % of control
dose: 1.0 mg/kg/injection, schedule: Q01DX007 (ip), vehicle: other
  T/C: 81 % of control
dose: 2.0 mg/kg/injection, schedule: Q01DX007 (ip), vehicle: other
  T/C: 110 % of control
[2]
  T/C: 66 % of control

## O=C(c1ccccc1)C(C(=O)c1ccccc1)C(=O)c1ccccc1.O=C(c1ccccc1)C(C(=O)c1ccccc1)C(=O)c1ccccc1.[Cu]
dose: 55.0 mg/kg/injection, schedule: Q01DX007 (ip), vehicle: carboxymethylcellulose (CMC)
  T/C: 68 % of control and 70 % of control
dose: 85.0 mg/kg/injection, schedule: Q01DX007 (ip), vehicle: carboxymethylcellulose (CMC)
  T/C: 63 % of control and 84 % of control
dose: 190.0 mg/kg/injection, schedule: Q01DX007 (ip), vehicle: carboxymethylcellulose (CMC)
  T/C: 60 % of control and 64 % of control
dose: 284.0 mg/kg/injection, schedule: Q01DX007 (ip), vehicle: carboxymethylcellulose (CMC)
  T/C: 66 % of control

## O=C(O)c1ccc(N=NSc2ncnc3nc[nH]c23)cc1O
dose: 0.2 mg/kg/injection, schedule: Q01DX007 (ip), vehicle: carboxymethylcellulose (CMC)
  T/C: 101 % of control
dose: 0.5 mg/kg/injection, schedule: Q01DX007 (ip), vehicle: carboxymethylcellulose (CMC)
  T/C: 115 % of control
dose: 1.0 mg/kg/injection, schedule: Q01DX007 (ip), vehicle: carboxymethylcellulose (CMC)
  T/C: 108 % of control
dose: 8.0 mg/kg/injection, schedule: Q01DX007 (ip), vehicle: carboxymethylcellulose (CMC)
  T/C: 9 % of control

## C=CCOc1ccc2c(c1)CC[C@@H]1[C@@H]2CC[C@]2(C)[C@@H](O)[C@H](O)C[C@@H]12
dose: 2.5 mg/kg/injection, schedule: Q01DX007 (sc), vehicle: steriod suspending solution
  T/C: 105 % of control
dose: 5.0 mg/kg/injection, schedule: Q01DX007 (sc), vehicle: steriod suspending solution
  T/C: 120 % of control
dose: 10.0 mg/kg/injection, schedule: Q01DX007 (sc), vehicle: steriod suspending solution
  T/C: 82 % of control

Source: PubChem BioAssay AID342 (DTP/NCI, 2004)
